Reference: patent US4425360A, “Pharmacologically active novel O-substituted pyruvic acid oximes” (Boehringer Mannheim GmbH, priority 1980, dated 1984)

Experiments:
[1] = tested on: blood-glucose concentration; experiment: Threshold dose of blood-glucose-lowering activity in fasting guinea pigs (i.p.); assay type: in vivo, guinea pig; settings: Cavia porcellus, ip
Method: 1. Test procedure for determination of threshold dose
Fasting guinea pigs were used as experimental models to determine the threshold dose of the blood-glucose-lowering activity of the substances to be investigated. Food was withheld from the animals used in the investigations for 16 hours prior to the start of the tests. The animals remained without food for the entire testing period but had free access to drinking water.
The substances were administered intraperitoneally as a solution of the potassium salt at pH 7.4.
A parallel control group was given an 0.9% NaCl solution.
The drawing of blood for determination of the glucose concentrations was effected immediately prior to administration of the substances and at one-hour intervals up to the fourth hour after the administration of the substances. To this end, an ear vein was carefully punctured with a No. 18 cannula, and the drops of blood issuing were picked up with a 10 μl capillary.
The blood-glucose concentration was determined in the hemolyzate by the specific hexokinase method. To this end, the 10 μl blood sample was pipetted into a stabilizer solution containing digitonin as hemolysis accelerator and maleinimide as […]. Following this, an aliquot was taken from the hemolyzate so obtained and determined by the hexokinase method on an LKB 8600 (made by LKB, Bromma, Sweden).
The dose which with the specified number of test animals per dose group (N=4) was just large enough to produce a significant lowering of fasting glycemia (p>0.05) was adopted as threshold dose.

glucose resorption = experiment: Resorption-inhibiting activity: oral glucose loading in fasting guinea pigs; assay type: in vivo, guinea pig; settings: Cavia porcellus, ip, 1 g glucose p.o., AUC difference vs control; for inhibition in vivo at 20 mg/kg: dose 20 mg/kg i.p.; for inhibition in vivo at 40 mg/kg: dose 40 mg/kg i.p.; for inhibition in vivo at 25 mg/kg: dose 25 mg/kg i.p.
Method: 2. Test procedure for determination of resorption-inhibiting activity
To determine the effect on glucose resorption, oral glucose loading was effected. To this end, the substance to be tested was administered intraperitoneally as potassium salt, as described, to a group of ten fasting guinea pigs. At the same time, 1 g glucose was orally administered to the animals as a 20% solution by means of an esophageal bougie.
After a preliminary value had been established, blood was taken from the animals at close intervals (20 min. to 200 min.) for determination of the glucose concentrations, as described.
A parallel control group was also given 1 g glucose p. o., and intraperitoneally a corresponding amount of 0.9% NaCl solution.
The blood-glucose concentration was determined in the hemolyzate by the hexokinase method, as described.
With regard to glucose resorption, the area under the concentration/time curve, calculated by means of the empirical trapeze formula, served as quantity to be measured. The difference in the area between the control and test groups, expressed in percent, was used as a measure for the inhibition of glucose resorption.

[2] = potassium salt pH 7.4, N=4 per dose group, smallest dose significantly lowering fasting glycemia
[3] = potassium salt pH 7.4, N=4, remark printed: weak

CC(=NOCCCc1ccccc1)C(=O)[O-].[Na+] [Example 1b, sodium 2-(3-phenylpropyloxyimino)-propionate]
minimal effective dose [1, 2]: 25 to 50 mg/kg | inhibition in vivo at 20 mg/kg (glucose resorption): 39%

CC(=NOCCOc1ccccc1)C(=O)[O-].[Na+] [Example 1c, sodium 2-(2-phenoxyethyloxyimino)-propionate]
minimal effective dose [1, 3]: 50 mg/kg | inhibition in vivo at 40 mg/kg (glucose resorption): 25%

CC(=NOCCc1ccccc1)C(=O)O [Example 2a, 2-(2-phenylethyloxyimino)-propionic acid]
minimal effective dose [1, 2]: 75 mg/kg | inhibition in vivo at 40 mg/kg (glucose resorption): 33%

CC(=NOCC#Cc1ccccc1)C(=O)O [Example 2d, 2-(3-phenyl-2-propynyloxyimino)-propionic acid]
minimal effective dose ([1]; potassium salt pH 7.4, N=4, remark printed: wk. indiv. animals): 25 mg/kg | inhibition in vivo at 40 mg/kg (glucose resorption): 65%

CC(=CCON=C(C)C(=O)O)c1ccccc1 [Example 3, 2-(γ-Methylcinnamyloxyimino)-propionic acid]
minimal effective dose [1, 2]: 50 mg/kg | inhibition in vivo at 30 mg/kg (glucose resorption; dose 30 mg/kg i.p.): 0%

CC(=NOCC=Cc1ccccc1)C(=O)O [Example 3a, 2-cinnamyloxyiminopropionic acid]
minimal effective dose [1, 2]: 25 mg/kg | inhibition in vivo at 10 mg/kg (glucose resorption; dose 10 mg/kg i.p.): 33%

CC(=Cc1ccccc1)CON=C(C)C(=O)O [Example 3b, 2-(β-methylcinnamyloxyimino)-propionic acid]
minimal effective dose [1, 2]: 50 mg/kg | inhibition in vivo at 40 mg/kg (glucose resorption): 40%

CC(=NOCC=Cc1cccc(Cl)c1)C(=O)O [Example 4, 2-(3-Chlorocinnamyloxyimino)-propionic acid]
minimal effective dose [1, 2]: 25 mg/kg | inhibition in vivo at 20 mg/kg (glucose resorption): 55%

CC(=NOCC=Cc1ccccc1Cl)C(=O)O [Example 4a, 2-(2-chlorocinnamyloxyimino)-propionic acid]
minimal effective dose [1, 3]: 50 mg/kg | inhibition in vivo at 40 mg/kg (glucose resorption): 41%

CC(=NOCC=Cc1ccc(Cl)cc1)C(=O)O [Example 4b, 2-(4-chlorocinnamyloxyimino)-propionic acid]
minimal effective dose ([1]; potassium salt pH 7.4, N=4, remark printed: flat D-W curve): 25 to 50 mg/kg | inhibition in vivo at 20 mg/kg (glucose resorption): 10%

C=CCON=C(C)C(=O)O [Example 4c, 2-(allyloxyimino)-propionic acid]
minimal effective dose [1, 2]: > 50 mg/kg | inhibition in vivo at 40 mg/kg (glucose resorption): 37%

CC(=NOCC=Cc1ccc(F)cc1)C(=O)O [Example 5, 2-(4-Fluorocinnamyloxyimino)-propionic acid]
minimal effective dose [1, 2]: 50 mg/kg | inhibition in vivo at 40 mg/kg (glucose resorption): 3%

COc1cccc(C=CCON=C(C)C(=O)O)c1 [Example 5D, 2-(3-methoxycinnamyloxyimino)-propionic acid]
minimal effective dose [1, 2]: 25 mg/kg | inhibition in vivo at 25 mg/kg (glucose resorption): 36%

CC(=NOCC=Cc1cccc(C(F)(F)F)c1)C(=O)O [Example 5a, 2-(3-trifluoromethylcinnamyloxyimino)-propionic acid]
minimal effective dose [1, 2]: 50 mg/kg | inhibition in vivo at 40 mg/kg (glucose resorption): 34%

CC(=NOCC=Cc1cc(Cl)ccc1C)C(=O)O [Example 5f, 2-(5-chloro-2-methylcinnamyloxyimino)-propionic acid]
minimal effective dose [1, 2]: 50 mg/kg | inhibition in vivo at 40 mg/kg (glucose resorption): 33%

CC(=NOCC=Cc1ccccc1)C(=O)N1CCN(C)CC1 [Example 8, 4-[2-(Cinnamyloxyimino)-propionyl]-1-methylpiperazine]
minimal effective dose [1, 2]: > 50 mg/kg | inhibition in vivo at 40 mg/kg (glucose resorption): 44%

O=C(O)C(CF)=NOCC=Cc1ccccc1 [Example 9, 2-(Cinnamyloxyimino)-3-fluoropropionic acid]
minimal effective dose [1, 2]: 25 mg/kg | inhibition in vivo at 20 mg/kg (glucose resorption): 26%

O=C(O)C=NOCC=Cc1ccccc1 [Example 10, Cinnamyloxyiminoacetic acid]
minimal effective dose [1, 2]: > 50 mg/kg | inhibition in vivo at 25 mg/kg (glucose resorption): 69%

CCC(=NOCC=Cc1ccccc1)C(=O)O [Example 10a, 2-cinnamyloxyiminobutyric acid]
minimal effective dose [1, 2]: 25 mg/kg | inhibition in vivo at 20 mg/kg (glucose resorption): 0%
